Like-named read-outs stand apart in the source and are kept apart here.
Experiment: Phase one study: effect of food on single 1000 mg dose PK (fasted vs fed)
Assay type: in vivo, human
Settings: for AUC0-24, mean, free DGLA, baseline-corrected plasma / AUC0-24/Dose, mean, free DGLA, baseline-corrected plasma / AUC0-24/Dose, mean, total DGLA, baseline-corrected plasma / AUC0-inf, mean, free DGLA, baseline-corrected plasma / AUC0-inf/Dose, mean, free DGLA, baseline-corrected plasma / CL/F, mean, free DGLA, baseline-corrected plasma / Cmax, mean, free DGLA, baseline-corrected plasma / Cmax/Dose, mean, free DGLA, baseline-corrected plasma / Cmax/Dose, mean, total DGLA, baseline-corrected plasma / λz, mean, free DGLA, baseline-corrected plasma / λz, mean, total DGLA, baseline-corrected plasma / half-life / Tmax: 1000 mg single dose; for mean baseline-corrected AUC0-24, total DGLA vs free DGLA / mean baseline-corrected Cmax, total DGLA vs free DGLA / half-life / Tmax: 1000 mg; for half-life / Tmax: human, plasma, oral; for half-life: read-out: t1/2, median, free DGLA, baseline-corrected plasma (converted); for Tmax: read-out: tmax, median, free DGLA, baseline-corrected plasma
Procedure: Subjects were randomly assigned in a 3:1 ratio of DG107G to placebo by block randomization. Single dose part one of the study comprised three cohorts of eight subjects each, with the addition of Cohort four based on evaluation of the safety data of Cohort three by the Safety Monitoring Committee (SMC). A single oral dose of DS107G or matching placebo was administered to fasted subjects in Cohorts one to three (500, 1000, and 2000 mg, respectively) in parallel; subjects in Cohort four were administered a dose of 4000 mg following completion of Cohort three. Subjects in Cohort two received 1000 mg or matching placebo in the fed state at 14 days after the first dose.
Food effect was evaluated in Cohort two at least 14 days after the first dose at which time a second single dose was administered. Subjects were administered a 1000-mg dose of study drug with 240 mL of water after a 10-hour fasting period and 30 minutes after starting consumption of a meal. Subjects then refrained from food intake for at least 4 hours after dosing. Food consumption was standardized for at least 12 hours after dosing using a standardized high-fat meal (800 to 1000 kcal with 500 to 600 kcal from fat and 250 kcal from carbohydrates). A typical standard test meal consisted of two eggs fried in butter, two strips of bacon, two slices of toast with butter, 120 mL of hash brown potatoes, and 240 mL of whole milk.
Subjects in Cohort two undergoing evaluation of the food effect on oral 1000 mg DGLA capsules were restricted from food consumption for at least 4 hours after dosing. Food consumption was standardized for at least 12 hours post dose using a standardized high-fat meal.

In the case of `CCCCC/C=C\C/C=C\C/C=C\CCCCCCC(=O)O` [DS107G, Dihomo gamma linolenic acid], the “AUC0-24, mean, free DGLA, baseline-corrected plasma” value (fasted) is reported as 3998.5 ng·h/mL, the “AUC0-24/Dose, mean, free DGLA, baseline-corrected plasma” value (fasted) is reported as 4.00 h/kL and the “AUC0-24/Dose, mean, total DGLA, baseline-corrected plasma” value (fasted) is reported as 215.37 h/kL. For the same compound, the “AUC0-inf, mean, free DGLA, baseline-corrected plasma” value (fasted) was 218955.6 ng·h/mL, the “AUC0-inf/Dose, mean, free DGLA, baseline-corrected plasma” value (fasted) was 218.96 h/kL and the “CL/F, mean, free DGLA, baseline-corrected plasma” value (fasted) was 0.1866 kL/h. For the same compound, the “Cmax, mean, free DGLA, baseline-corrected plasma” value (fasted) was 1602.8 ng/mL, the “Cmax/Dose, mean, free DGLA, baseline-corrected plasma” value (fasted) was 1.603 kL⁻¹ and the “Cmax/Dose, mean, total DGLA, baseline-corrected plasma” value (fasted) was 15.750 kL⁻¹. For the same compound, the “λz, mean, free DGLA, baseline-corrected plasma” value (fasted) was 0.0487 h⁻¹, the “λz, mean, total DGLA, baseline-corrected plasma” value (fasted) was 0.0136 h⁻¹ and the “AUC0-24, mean, free DGLA, baseline-corrected plasma” value (fed) was 2102.7 ng·h/mL. The “AUC0-24/Dose, mean, free DGLA, baseline-corrected plasma” value (fed) was 2.10 h/kL, the “AUC0-24/Dose, mean, total DGLA, baseline-corrected plasma” value (fed) was 117.39 h/kL and the “AUC0-inf, mean, free DGLA, baseline-corrected plasma” value (fed) was 29150.8 ng·h/mL. For the same compound, the “AUC0-inf/Dose, mean, free DGLA, baseline-corrected plasma” value (fed) was 29.15 h/kL, the “CL/F, mean, free DGLA, baseline-corrected plasma” value (fed) was 0.1658 kL/h and the “Cmax, mean, free DGLA, baseline-corrected plasma” value (fed) was 520.2 ng/mL. For the same compound, the “Cmax/Dose, mean, free DGLA, baseline-corrected plasma” value (fed) was 0.520 kL⁻¹, the “Cmax/Dose, mean, total DGLA, baseline-corrected plasma” value (fed) was 10.317 kL⁻¹ and the “λz, mean, free DGLA, baseline-corrected plasma” value (fed) was 0.0403 h⁻¹. The “λz, mean, total DGLA, baseline-corrected plasma” value (fed) was 0.0805 h⁻¹, the “mean baseline-corrected AUC0-24, total DGLA vs free DGLA” value (fasted) was about 54 fold and the “mean baseline-corrected Cmax, total DGLA vs free DGLA” value (fasted) was about 10 fold. For the same compound, the “mean baseline-corrected AUC0-24, total DGLA vs free DGLA” value (fed) was about 56 fold, the “mean baseline-corrected Cmax, total DGLA vs free DGLA” value (fed) was about 20 fold and the half-life (fasted) was 28.3 h. It also gave a Tmax (fasted) of 4 h, a half-life (fed) of 141 h and a Tmax (fed) of 5 h. For the same compound, the “free DGLA Cmax occurred sooner under fasted than fed conditions (median)” value (single 1000-mg dose) was 1 h, the “higher rate and extent of total DGLA absorption under fasted conditions (mean Cmax and AUC0-24)” value (single 1000-mg dose) was “approximately 50%” and the “mean baseline-corrected free DGLA Cmax, fasted vs fed” value (single 1000-mg dose) was “about 3 fold”. For the same compound, the “mean free DGLA baseline-corrected AUC0-24, fasted vs fed” value (single 1000-mg dose) was “about 2 fold”, the “total DGLA mean baseline-corrected AUC0-24, fasted vs fed” value (single 1000-mg dose) was “about 1.8 fold” and the “total DGLA mean baseline-corrected Cmax, fasted vs fed” value (single 1000-mg dose) was “about 1.5 fold”. The “total DGLA tmax occurred sooner under fasted than fed conditions” value (single 1000-mg dose) was “about 50%”.
